In the supplement of paper PMC10307832:

Tests used:
Experiment in all cases: relative viability (nuclei count vs DMSO), 5 days (fraction); higher = more cells survive
Crenolanib + Alpelisib = compound: CC1(COc2ccc3c(c2)ncn3-c2ccc3cccc(N4CCC(N)CC4)c3n2)COC1 [Crenolanib] + Cc1nc(NC(=O)N2CCC[C@H]2C(N)=O)sc1-c1ccnc(C(C)(C)C(F)(F)F)c1 [Alpelisib] (partner 2 µM)
Summary of the method: (§1)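 Relative viability was taken as the ratio of nuclei in treated wells to nuclei in vehicle wells. Lung cancer cell lines in 1536-well plates received compounds by pin tool one day after seeding, either one drug alone or a fixed anchor-drug dose plus five library-drug doses (not always all listed) in √10 steps. Nuclei were counted on 4× images after 5 days of treatment, and values are medians of duplicate plates.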

Crenolanib + Olaparib = compound: CC1(COc2ccc3c(c2)ncn3-c2ccc3cccc(N4CCC(N)CC4)c3n2)COC1 [Crenolanib] + O=C(c1cc(Cc2n[nH]c(=O)c3ccccc23)ccc1F)N1CCN(C(=O)C2CC2)CC1 [Olaparib] (partner 8 µM)
Summary of the method: as §1

Tivantinib + Bortezomib = compound: O=C1NC(=O)[C@@H](c2cn3c4c(cccc24)CCC3)[C@@H]1c1c[nH]c2ccccc12 [Tivantinib] + CC(C)C[C@H](NC(=O)[C@H](Cc1ccccc1)NC(=O)c1cnccn1)B(O)O [Bortezomib] (partner 0.002 µM)
Summary of the method: as §1

Tivantinib + Linsitinib = compound: O=C1NC(=O)[C@@H](c2cn3c4c(cccc24)CCC3)[C@@H]1c1c[nH]c2ccccc12 [Tivantinib] + C[C@]1(O)C[C@@H](c2nc(-c3ccc4ccc(-c5ccccc5)nc4c3)c3c(N)nccn32)C1 [Linsitinib] (partner 1 µM)
Summary of the method: as §1

Cell Line	relative viability (Crenolanib + Alpelisib; first compound 0.01 µM)	relative viability (Crenolanib + Alpelisib; first compound 0.03162 µM)	relative viability (Crenolanib + Alpelisib; first compound 0.1 µM)	relative viability (Crenolanib + Alpelisib; first compound 0.3162 µM)	relative viability (Crenolanib + Alpelisib; first compound 1 µM)	relative viability (Crenolanib + Olaparib; first compound 0.01 µM)	relative viability (Crenolanib + Olaparib; first compound 0.03162 µM)	relative viability (Crenolanib + Olaparib; first compound 0.1 µM)	relative viability (Crenolanib + Olaparib; first compound 0.3162 µM)	relative viability (Crenolanib + Olaparib; first compound 1 µM)	relative viability (Tivantinib + Bortezomib; first compound 0.01 µM)	relative viability (Tivantinib + Bortezomib; first compound 0.03162 µM)	relative viability (Tivantinib + Bortezomib; first compound 0.1 µM)	relative viability (Tivantinib + Bortezomib; first compound 0.3162 µM)	relative viability (Tivantinib + Linsitinib; first compound 0.01 µM)	relative viability (Tivantinib + Linsitinib; first compound 0.03162 µM)	relative viability (Tivantinib + Linsitinib; first compound 0.1 µM)	relative viability (Tivantinib + Linsitinib; first compound 0.3162 µM)
COR-L 105	1.02	1.25	0.811	1.03	1.02	0.729	0.641	0.643	0.751	0.584	0.754	0.398	0.671	0.354	0.824	0.695	0.985	0.578
NCI-H1993	0.682	0.629	0.688	0.737	0.709	1.16	1.13	1.07	1.15	0.937	1.16	1.05	1.14	0.79	0.742	0.863	0.734	0.721
Calu-6	1.01	0.92	1	1.17	1.12	0.596	0.494	0.529	0.643	0.556	1.08	1.07	0.969	0.738	1.02	1.04	–	0.963
NCI-H2009	1.12	1.19	1.06	1.18	1.07	0.694	0.672	0.694	0.682	0.555	1.01	0.646	1.01	1.1	1.16	1.19	1.15	1.17
SK-LU-1	1.04	0.931	0.703	1.27	0.87	0.547	0.491	0.331	0.7	0.534	1.07	0.954	1.32	1.05	1.07	1.17	0.982	1.14
NCI-H2347	1.1	1.04	0.642	1.09	1.14	0.555	0.457	0.536	0.59	0.636	1.07	1.01	1.13	1.01	0.996	0.843	1.02	1.01
HCC-44	0.836	0.857	0.718	0.932	0.782	0.983	0.941	0.976	0.98	0.991	0.87	0.975	0.883	0.915	0.707	0.589	0.745	0.641
EMC-BAC-2	0.747	0.758	0.68	0.881	0.771	0.559	–	0.466	0.532	0.462	1.05	0.989	1.04	0.969	0.842	0.808	0.768	0.666
NCI-H3122	0.768	0.81	0.827	0.78	0.979	0.678	0.622	0.641	0.727	0.61	1.05	1.03	1.04	0.995	0.939	0.946	0.973	0.968
H3255	0.811	0.676	0.71	0.714	0.767	0.57	0.541	0.552	0.586	0.531	0.812	0.884	0.723	–	0.95	0.864	0.943	–
EBC-1	0.89	0.78	0.868	0.798	0.845	0.768	0.727	0.667	0.663	0.641	0.611	0.596	0.557	0.465	0.902	0.626	0.842	0.86
NCI-H1975	0.602	0.663	0.605	0.642	0.61	0.768	0.699	0.73	0.726	0.731	0.411	0.366	0.442	0.405	0.875	0.919	0.938	0.598
NCI-H647	1.16	1.28	1.04	1.21	1.11	0.477	0.512	0.511	0.802	0.586	0.977	0.848	0.775	1.14	1.15	1.19	1.12	1.19
NCI-H441	0.708	–	0.888	0.732	0.792	0.602	0.524	0.608	0.56	0.535	0.525	0.651	–	0.449	0.383	0.508	0.563	0.463
NCI-H1355	0.845	0.803	0.911	1.02	0.748	0.812	0.817	0.739	0.784	0.651	1.31	1.18	1.17	1.21	0.726	0.801	0.725	0.779
NCI-H23	0.845	0.797	0.604	0.778	0.741	0.311	0.278	0.282	0.347	0.341	1.13	1.11	0.996	0.965	0.539	0.579	0.626	0.561
LC-2-ad	0.945	0.886	0.815	1.03	0.89	0.65	0.704	0.728	0.74	0.65	1.18	0.853	0.976	1.08	0.917	0.772	0.837	0.741
NCI-H650	1.14	1.13	0.972	1.06	1.07	0.4	0.379	0.343	0.339	0.325	0.723	–	0.772	0.874	0.997	–	0.774	0.973

Cell Line	relative viability (Crenolanib + Alpelisib; first compound 0.01 µM)	relative viability (Crenolanib + Alpelisib; first compound 0.03162 µM)	relative viability (Crenolanib + Alpelisib; first compound 0.1 µM)	relative viability (Crenolanib + Alpelisib; first compound 0.3162 µM)	relative viability (Crenolanib + Alpelisib; first compound 1 µM)	relative viability (Crenolanib + Olaparib; first compound 0.01 µM)	relative viability (Crenolanib + Olaparib; first compound 0.03162 µM)	relative viability (Crenolanib + Olaparib; first compound 0.1 µM)	relative viability (Crenolanib + Olaparib; first compound 0.3162 µM)	relative viability (Crenolanib + Olaparib; first compound 1 µM)	relative viability (Tivantinib + Bortezomib; first compound 0.01 µM)	relative viability (Tivantinib + Bortezomib; first compound 0.03162 µM)	relative viability (Tivantinib + Bortezomib; first compound 0.1 µM)	relative viability (Tivantinib + Bortezomib; first compound 0.3162 µM)	relative viability (Tivantinib + Linsitinib; first compound 0.01 µM)	relative viability (Tivantinib + Linsitinib; first compound 0.03162 µM)	relative viability (Tivantinib + Linsitinib; first compound 0.1 µM)	relative viability (Tivantinib + Linsitinib; first compound 0.3162 µM)
NCI-H2087	0.86	1.11	0.942	1.02	1.17	0.602	0.643	0.547	0.671	0.623	0.759	0.639	0.664	0.893	0.962	0.795	0.951	0.944
NCI-H838	1.02	0.991	0.968	1.22	0.846	0.828	0.776	0.735	0.855	0.635	0.712	0.61	0.683	0.786	1.01	1.04	0.975	0.984
NCI-H460	0.571	0.54	0.41	0.709	0.265	0.445	0.366	0.405	0.438	0.415	1.06	1.04	0.975	1.36	0.833	0.637	0.746	0.683
LU99A	0.565	0.503	0.49	0.526	0.506	0.274	0.283	0.281	0.22	0.27	1.19	0.99	1.18	1.09	0.537	0.54	0.523	0.384
NCI-H322M	0.807	0.909	0.829	0.913	0.841	0.741	0.779	0.651	0.806	0.795	1.17	1.15	1.22	1.06	0.94	0.864	0.938	0.398
NCI-H520	0.868	0.878	0.863	0.99	0.848	0.367	0.258	0.33	0.288	0.338	0.687	0.235	0.505	0.595	1.13	1.11	0.812	0.91
NCI-H661	0.894	0.609	0.479	0.597	0.542	0.719	0.803	0.681	0.811	0.81	0.897	0.782	0.9	–	0.658	0.442	0.628	–
NCI-H727	0.609	0.671	0.563	0.665	0.627	0.678	0.652	0.646	0.627	0.847	0.751	0.772	0.867	–	0.293	0.253	0.243	–
NCI-H1755	0.958	0.953	0.915	1.05	0.898	0.919	0.801	0.845	0.898	0.848	0.974	0.94	0.934	1.01	0.975	0.97	0.916	1.01
NCI-H1299	1.04	1.06	0.982	1.06	1.05	0.965	0.921	0.916	0.978	0.935	1	1	1.04	1.03	0.941	0.946	0.92	1.04
HARA	0.877	0.818	0.712	0.793	0.751	0.846	0.949	0.707	0.87	0.683	1.16	1.04	1.07	1.06	1.05	0.882	0.882	0.303
201T	1.01	1.02	0.998	1.05	1.05	0.83	0.852	0.786	0.867	0.86	1.06	1.06	1.09	1.1	1.03	1.03	0.971	0.954
NCI-H2228	0.842	0.863	0.712	0.867	0.748	0.76	0.833	0.684	1.13	0.686	0.886	0.908	1.13	0.932	0.639	0.538	0.519	0.627
IA-LM	0.786	0.819	0.75	0.898	0.854	0.847	0.907	0.88	0.817	0.883	0.855	0.942	0.743	0.848	0.593	–	0.586	0.538
CAL-12T	1.33	1.12	1.21	1.49	1.2	0.746	0.694	0.721	0.771	0.725	0.999	0.873	1.03	0.854	0.785	0.812	0.709	0.397
NCI-H596	0.435	0.531	0.494	0.478	0.536	0.731	0.806	0.68	0.64	0.681	1.19	1.09	1.78	0.936	1.05	1.05	1.05	1.04
NCI-H1792	0.707	0.741	0.697	0.705	0.666	0.439	0.397	0.334	0.757	0.384	0.943	0.968	0.927	0.813	0.596	0.431	0.512	0.323
NCI-H2085	1.11	0.918	0.948	1.06	1.05	–	0.752	0.714	0.782	0.784	0.994	0.972	1.02	1.06	0.877	1.07	0.986	0.879
